{"source": "PubChem BioAssay (NCI)", "note": "Several values for one entry are separate records, joined by “and”; a condition that tells them apart may be missing. Identical values can stand only once.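 Following 48 hours of exposure in 96-well plates, responses at five concentrations were used to interpolate endpoints linearly. GI50 is the concentration that inhibits growth by half. TGI: concentration producing complete growth inhibition.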 *1 amine or outer side, *2 acyl side, *3 side chain or, on linkers, in order; H or OH if unused. Where a SMILES comes first, the peptide text is derived from it. [ ]: non-standard residue; d: D form. The star is where a group is joined. X11 = C/C=C/CC(C)C(O)[C@H](N[*:1])C(=O)[*:2]; Decanoyl = CCCCCCCCCC(=O)*; Leu(ol) = CC(C)C[C@H](N)CO; Iva = CC[C@](C)(N)C(=O)O; Aib = CC(C)(N)C(=O)O"}
{"test_system": "MDA-MB-468 breast", "experiment": "NCI anticancer screen, dose series, 48 h"}
{"smiles": "C/C=C/CC(C)C(O)[C@H](NC(=O)[C@@H]1CCCN1C(=O)[C@](C)(CC)NC(=O)CCCCCCCCC)C(=O)N[C@@](C)(CC)C(=O)N[C@@H](CCC(N)=O)C(=O)N[C@H](CCC(N)=O)C(=O)NC(C)(C)C(=O)NC(C)(C)C(=O)N[C@@H](CCC(N)=O)C(=O)N[C@H](CC(C)C)C(=O)N[C@H](CO)CC(C)C", "note": "(stereo partly drawn) (Decanoyl-[Iva]P[X11][Iva]Q[dQ][Aib][Aib]Q[dL][Leu(ol)])", "GI50": "1780 nM", "TGI": "3380 nM"}
{"smiles": "Cc1ccc(-c2nc(/C=N/Nc3cc(C)nc4ccc(Cl)cc34)c(C)o2)cc1", "GI50": "1730 nM", "TGI": "3260 nM"}
{"smiles": "COc1cc(C2C3=C(COC3=O)N(CCO)c3cc4c(cc32)OCCO4)cc(OC)c1OC", "note": "(centres undefined)", "GI50": "106 nM", "TGI": "319 nM"}
{"smiles": "Cc1c(C#N)cccc1[C@@H](C)Nc1nnc(C)c2cnc(N3CCOCC3)cc12", "GI50": "7630 nM", "TGI": "38100 nM"}
{"smiles": "CSc1nc2nc3c(nc2c(=O)n1C)C(=O)c1ccccc1C3=O", "GI50": "140 nM", "TGI": "352 nM"}
{"smiles": "Cc1cc(C)c(C#N)c(Sc2nc(C)c([N+](=O)[O-])c(C)c2C#N)n1", "GI50": "1650 nM", "TGI": "3770 nM"}
{"smiles": "CS(=O)(=O)c1ccc(Nc2nc(N[C@H]3CCCC[C@H]3N)nc3cc[nH]c(=O)c23)cc1", "GI50": "338 nM", "TGI": "1460 nM"}
{"smiles": "NC(=O)c1ccc(Oc2nccc(-c3c(-c4ccc(F)cc4)ncn3C3CCNCC3)n2)cc1", "GI50": "7400 nM", "TGI": "> 25000 nM"}
{"smiles": "O=C1/C(=C/c2ccc(F)cc2)CN(C(=O)CCN2CCC(=NO)CC2)C/C1=C\\c1ccc(F)cc1", "GI50": "1730 nM", "TGI": "4720 nM"}
{"smiles": "COc1ccc(-c2cc3c(C)nc(N)nc3n(C3CCC(OCCO)CC3)c2=O)cn1", "note": "(centres undefined)", "GI50": "41.7 nM and 32.3 nM", "TGI": "270 nM and 256 nM"}
{"smiles": "COc1ccc(-c2nc(-c3nc4ccc(C)cc4[nH]3)cc3c2[nH]c2ccccc23)cc1", "GI50": "2690 nM", "TGI": "25000 nM"}
{"smiles": "c1ccc(OCCC[P+](c2ccccc2)(c2ccccc2)c2ccccc2)cc1", "GI50": "230 nM", "TGI": "1490 nM"}
{"smiles": "CC/C(Cc1ccccc1)=C(\\c1ccc(OCCN2CCCC2)cc1)c1ccc(OC(=O)NCc2ccccc2)cc1", "GI50": "1990 nM", "TGI": "3930 nM"}
{"smiles": "CC(=O)N1CCN(CCNC(=O)n2cc(-c3ccncc3)c(-c3cc(O)cc(Cl)c3)n2)CC1", "GI50": "4590 nM", "TGI": "20800 nM"}
{"smiles": "CS(=O)(=O)Nc1cccc(-c2ccc3ncnc(Nc4ccc(F)c(Cl)c4)c3c2)c1", "GI50": "108 nM", "TGI": "860 nM"}
{"smiles": "O=C(/C=C/C=C/c1ccccc1)c1ccco1", "GI50": "5000 nM", "TGI": "25100 nM"}
{"smiles": "COc1ccc(C(=O)/C=C/c2cc(-c3cc(OC)c(OC)c(OC)c3)n[nH]2)cc1", "GI50": "1290 nM", "TGI": "2650 nM"}
{"smiles": "C[C@@H]1CCC/C=C/[C@H]2C[C@@H](O)C[C@@H]2[C@@H](O)/C=C/C(=O)O1", "GI50": "64.8 nM", "TGI": "5030 nM"}
{"smiles": "O=C1CSC(c2ccccc2Cl)N1c1nnc(Cn2cnnc2)o1", "note": "(centres undefined)", "GI50": "3850 nM", "TGI": "17200 nM"}
{"smiles": "CNCCCNc1nc2ccccc2c2c(=O)c3cc(OC)ccc3sc12", "GI50": "1760 nM", "TGI": "3470 nM"}
{"smiles": "COc1ccccc1S(=O)(=O)Nc1ccc2c3c(cc(CCC(=O)NCCCCNc4cccc5c4C(=O)N(C4CCC(=O)NC4=O)C5=O)cc13)C(=O)N2C", "note": "(centres undefined)", "GI50": "21.7 nM", "TGI": "87.2 nM"}
{"smiles": "Clc1ccc(-c2c3ccc(=[N+]4CCCCC4)cc-3oc3cc(N4CCCCC4)ccc23)cc1", "GI50": "104 nM", "TGI": "261 nM"}
{"smiles": "Cn1cc(C2=C(c3c[nH]c4ccccc34)C(=O)NC2=O)c2ccccc21", "GI50": "470 nM", "TGI": "> 25000 nM"}
{"smiles": "C#Cc1cccc(Nc2nc(Cl)nc3cc(NC(=O)CCl)ccc23)c1", "GI50": "500 nM", "TGI": "1170 nM"}
{"smiles": "N#CC1=C(N)Oc2c(ccc3ccccc23)C1c1cc(=O)oc2ccc(Cl)cc12", "note": "(centres undefined)", "GI50": "520 nM", "TGI": "33000 nM"}
{"smiles": "NS(=O)(=O)c1ccc(Nc2nc(N/N=C/c3ccc(C(F)(F)F)cc3)nc(Nc3ccccc3)n2)cc1", "GI50": "1730 nM", "TGI": "3870 nM"}
{"smiles": "CN(C)CCCn1c(=O)c2ccccc2c2cnc3[nH]ccc3c21", "GI50": "493 nM", "TGI": "2530 nM"}
{"smiles": "CCN(CC)CCCC(C)Nc1cc(-c2cccc(OC(F)(F)F)c2)nc2ccc(N3CCCC3)cc12", "note": "(centres undefined)", "GI50": "43.5 nM", "TGI": "44000 nM"}
{"smiles": "COc1cc(OC)cc(C2C3=C(COC3=O)Nc3cc(OC)ccc32)c1", "note": "(centres undefined)", "GI50": "< 10 nM", "TGI": "< 12.2 nM"}
{"smiles": "C#C[C@@]1(O)[C@@H](CO)O[C@@H](n2cc(I)c3c(N)ncnc32)[C@@H]1O", "GI50": "153 nM", "TGI": "561 nM"}
{"smiles": "COc1ccc(C(=O)c2cc(C)c(OC)c(C)c2)c(OC)c1NC(C)=O", "GI50": "159 nM"}
{"smiles": "COc1cccc2cc(N(C)c3nc(C)nc4c3CCC4)ccc12", "GI50": "< 10 nM", "TGI": "20500 nM"}
{"smiles": "CN=C1C=CC(=C(c2ccc(N(C)C)cc2)c2ccc(N(C)C)cc2)C=C1", "GI50": "178 nM", "TGI": "539 nM"}
{"smiles": "CCCCCCSSC(=S)N(CC)CC", "GI50": "29900 nM", "TGI": "> 100000 nM"}
{"smiles": "COC(=O)N1CCN(CCNCc2ccc(NC(=O)c3ccc(C)c(C#Cc4cnc5cccnn45)c3)cc2C(F)(F)F)CC1", "GI50": "1580 nM", "TGI": "3200 nM"}
{"smiles": "O=C(NCCCc1cn[nH]c1)c1ccc(-c2ccncc2)c(C#Cc2ccc(F)cc2)c1", "GI50": "2140 nM", "TGI": "12800 nM"}
{"smiles": "CC(C)N(Cc1ccc(CN(C(=O)CCl)C(C)C)cc1)C(=O)CCl", "GI50": "1740 nM", "TGI": "3940 nM"}
{"smiles": "O=C(NC(=O)c1c(Cl)nc2sccn12)Nc1ccc(Cl)cc1", "GI50": "3950 nM", "TGI": "35700 nM"}
{"smiles": "O=C(NCC(F)(F)F)Nc1cccc(-c2cnc3cc(-c4ccc(F)cc4)ccn23)c1", "GI50": "339 nM", "TGI": "1930 nM"}
{"smiles": "CNCCN(C)c1ccc(Nc2cc(NC3CC3)n3ncc(C#N)c3n2)cc1NC(C)=O", "GI50": "< 10.6 nM", "TGI": "62.6 nM"}
